From paper PMC11050087, “Polyphenols from Maackia amurensis Heartwood Protect Neuronal Cells from Oxidative Stress and Prevent Herpetic Infection” (International Journal of Molecular Sciences, 2024)
Where “and” joins values, the source holds several entries; their conditions need not be identical. Equal values may be shown once. Read-outs that look alike come from different tables or passages of the source.

How the values were obtained:
HSV-1 [1] = test: Treatment of virus-infected cells with polyphenols, CPE inhibition assay; format: cell-based, HSV-1 strain L2; details: for IC50: Human alphaherpesvirus 1, compound added after virus adsorption and penetration, CPE assay; for Treatment of Infected Cells SI: ratio of CC50 to IC50
Protocol: (§1) In order to study the mechanism of action of these compounds, two additional schemes of treatment of the virus and Vero cells with polyphenols were applied: the compounds were added before virus infection (pretreatment of cells) and after penetration of the virus into host cells (treatment of infected cells). The fourth method of exposure where the virus and polyphenols were added to cells simultaneously (simultaneous treatment) was previously described by us in [22]. The anti-HSV-1 activity of polyphenols was assessed using the cytopathic effect inhibition (CPE) assay.
The monolayer of cells was infected with the virus (100 TCID50/mL) at 37 °C for 1 h, and then the cells were washed with PBS (Sigma, Saint-Louis, MO, USA) and treated with different concentrations of the studied compounds and incubated until CPE appeared.

HSV-1 [2] = system: HSV-1; design: method as in PMID 36985562; details: ref [22], cited from earlier work; for Simultaneous Treatment SI: ratio of CC50 to IC50; for Simultaneous Treatment IC50 / IC50: virus and compound added to cells simultaneously, CPE assay; for IC50: read-out: Simultaneous Treatment IC50
HSV-1 [3] = test: Virucidal activity, RT-PCR assay (HSV-1 pretreated with compounds); format: cell-based, HSV-1 strain L2; details: for Ct: 72 h; for −ΔCt: vs virus control; for activity at 0.1 µg/mL / activity at 1 µg/mL / activity at 10 µg/mL / log reduction at 0.1 µg/mL / log reduction at 1 µg/mL / log reduction at 10 µg/mL: Human alphaherpesvirus 1, 72 h; for activity at 0.1 µg/mL / activity at 1 µg/mL / activity at 10 µg/mL: read-out: 2^−ΔCt; for log reduction at 0.1 µg/mL / log reduction at 1 µg/mL / log reduction at 10 µg/mL: read-out: log10
HSV-1 [4] = test: Pretreatment of cells with polyphenolic compounds, CPE inhibition assay; format: cell-based, HSV-1 strain L2; details: for IC50: Human alphaherpesvirus 1, cells pretreated 2 h before infection, CPE assay; for Pretreatment of Cells SI: ratio of CC50 to IC50
Protocol: as §1
The monolayer of cells was pretreated with different concentrations of the studied compounds for 2 h at 37 °C. After washing, the cells were infected with 100 TCID50/mL of the virus at 37 °C for 1 h. Then, unabsorbed virus was removed by washing with PBS (Sigma, Saint-Louis, MO, USA), and cells were incubated in the maintenance medium until CPE appeared.

[5] = Cytotoxicity against Vero cells (MTT assay); format: cell-based; details: African green monkey
Protocol: We prepared the stock solutions of the tested compounds (10 mg/mL) in DMSO (Sigma, St. Louis, MO, USA). For the MTT assay and further studies of anti-HSV-1 activity, we diluted the stock solutions with DMEM so that the final concentration of DMSO was 0.5%.
We used MTT assay to determine the cytotoxic effect of the tested compounds against Vero cells. We performed the MTT assay as previously described.

[6] = system: 6-OHDA-treated Neuro-2a cells; test: Apoptosis profile by flow cytometry (Annexin V & Dead Cell Kit); format: cell-based, murine; details: Table 1; polyphenols 10 µM, 6-OHDA 100 µM, 24 h; mean
Protocol: We investigated the effect of polyphenolic compounds from M. amurensis on apoptosis profile in 6-OHDA-treated Neuro-2a cells by flow cytometry using fluorescent annexin V conjugate as a fluorescent dye. We observed significant changes in apoptosis profile in Neuro-2a cells after 6-OHDA-treatment. […] Polyphenols 3, 6 and 13 diminished the neurotoxic effect of 6-OHDA-treatment.
The cells were incubated for 1 h in a 6-well plate (5 × 10^4 cells/mL) with polyphenolic compounds (10 µM). Then, 6-OHDA (100 µM) was added, and cell suspension was incubated for 24 h. After incubation, the maintenance media was collected, and the cells were washed by cold PBS twice and incubated with trypsin-EDTA solution. The cell suspension was washed with cold PBS twice again, centrifugated and then used for apoptosis detection by Muse® Annexin V & Dead Cell Kit in accordance with the manufacturer’s instructions (Luminex, Austin, TX, USA). The fluorescence was measured with Muse® Cell Analyzer (Luminex, Austin, TX, USA) and the data were processed by Muse 1.5 Analysis software (Luminex, Austin, TX, USA).

SMILES	IC50 (HSV-1 [1])	Treatment of Infected Cells SI (HSV-1 [1])	Simultaneous Treatment SI (HSV-1 [2])	Simultaneous Treatment IC50 (HSV-1 [2])	IC50 (HSV-1 [2])	Ct (HSV-1 [3]; 0.1 µg/mL)	−ΔCt (HSV-1 [3]; 0.1 µg/mL)	inhibition of HSV-1 replication by RT-PCR (in words) (HSV-1 [3]; 1 µg/mL)	Ct (HSV-1 [3]; 1 µg/mL)	−ΔCt (HSV-1 [3]; 1 µg/mL)	reduction in viral DNA (HSV-1 [3]; 10 µg/mL)	Ct (HSV-1 [3]; 10 µg/mL)	−ΔCt (HSV-1 [3]; 10 µg/mL)	activity at 0.1 µg/mL (HSV-1 [3])	activity at 1 µg/mL (HSV-1 [3])	activity at 10 µg/mL (HSV-1 [3])	log reduction at 0.1 µg/mL (HSV-1 [3])	log reduction at 1 µg/mL (HSV-1 [3])	log reduction at 10 µg/mL (HSV-1 [3])	IC50 (HSV-1 [4])	further results
Oc1cc(O)cc(/C=C/c2ccc3c(c2)O[C@H](c2cc(O)cc(O)c2)[C@@H](c2ccc(O)c(O)c2)O3)c1 [Compound 9, maackin]	24.5 µg/mL and 50.4 µM	11.0 ± 1.4	15.3 ± 1.9	17.6 ± 2.3 µg/mL	36.2 ± 4.7 µM	18.6 ± 2.4	−0.50 ± 0.05	inhibited the replication of HSV-1	25.9 ± 2.8	−7.8 ± 0.9	4.6 log10	33.3 ± 4.3	−15.2 ± 1.8	70.7 ± 9.2%	0.449 ± 0.06%	0.00266 ± 0.0003%	0.15 ± 0.02	2.3 ± 0.3	4.6 ± 0.6	70.3 µg/mL and 145 µM	Pretreatment of Cells SI (HSV-1 [4]): 3.8 and 3.8 ± 0.5
Oc1ccc(/C=C/c2cc(O)cc3c2[C@H](c2cc(O)cc(O)c2)[C@@H](c2ccc(O)c(O)c2)O3)cc1 [Compound 13, scirpusin A]	20.2 µg/mL and 43 µM	9.8 ± 1.2	14.4 ± 1.7	13.8 ± 1.6 µg/mL	29.4 ± 3.4 µM	18.6 ± 2.4	−0.50 ± 0.05	inhibited the replication of HSV-1	25.8 ± 3.3	−7.7 ± 0.8	3.9 log10	31.2 ± 3.7	−13.1 ± 1.6	70.7 ± 9.2%	0.481 ± 0.06%	0.0114 ± 0.001%	0.15 ± 0.02	2.3 ± 0.3	3.9 ± 0.5	47.2 µg/mL and 100 µM	CC50 [5]: 424 ± 50.1 µM; Dead [6]: 0.73 ± 0.15%; Early apop. [6]: 30.18 ± 1.13 %; Late apop./Dead [6]: 12.2 ± 0.34%; Live [6]: 56.90 ± 1.32 %; Pretreatment of Cells SI (HSV-1 [4]): 4.2 and 4.2 ± 0.6
O=C1C[C@@H](c2ccc(O)cc2)Oc2cc(O)ccc21 [Compound 6, liquiritigenin]																					virucidal activity against HSV-1 by RT-PCR (in words) (HSV-1 [3]; 0.1, 1 and 10 µg/mL): did not demonstrate virucidal activity; Dead [6]: 0.61 ± 0.13%; Early apop. [6]: 27.67 ± 1.09 %; Late apop./Dead [6]: 10.89 ± 0.86%; Live [6]: 61.83 ± 0.09 %
Oc1ccc(/C=C/c2cc(O)cc(O)c2)cc1 [Compound 1, resveratrol]						18.1 ± 2.2	0		20.4 ± 2.8	−2.3 ± 0.2		24.6 ± 2.9	−6.5 ± 0.8	100%	20.3 ± 2.4%	1.1 ± 0.14%	0	0.7 ± 0.09	1.9 ± 0.2		CC50 [5]: 123 µg/mL and 540 µM; anti-HSV-1 activity by RT-PCR (in words) (HSV-1 [3]; 10 µg/mL): moderate anti-HSV-1 activity
